One may read the IC50 as the point on the concentration scale where inhibition reaches its midpoint. A higher IC50 goes with a need for much substance. For orientation: inhibition means the drop in the measured response relative to a control, in per cent.

Active and inactive are the calls of the source. The calls are words filed in the database; no cut-off is given here. Some results are limits rather than exact numbers.

One assay has as its system MDA-MB-435. Put plainly: Cytotoxicity against human MDA-MB-435 cells by MTT assay. Format: functional, cell-based.
A short description of assay [1]: Cytotoxicity against human PC3 cells by MTT assay. Format: functional, cell-based. The note with it: PC-3. In general terms: Tetrazolium assays rely on reduction of a dye to a coloured formazan, in cell work by metabolically active cells.
For another assay, the system named is A549. Description: Cytotoxicity against human A549 cells by MTT assay. Format: functional, cell-based.
In another assay the test system is HT-29. Description: Cytotoxicity against human HT-29 cells by MTT assay. Format: functional, cell-based.
In another assay the test system is Chorioallantoic membrane. Description: Antiangiogenic activity in chicken chorioallantoic membrane assessed as inhibition of vascular branch formation after 3 days. Format: functional. The note with it: Gallus gallus.
Assay [2] in a line: Cytotoxicity against human […] cells by MTT assay. Format: functional, cell-based.
Assay [3] in a line: Cytotoxicity against human BGC823 cells by MTT assay. Format: functional, cell-based. The note with it: BGC-823.

`O=C(Nc1ccc2c(/C=N/c3cccnc3)n[nH]c2c1)Nc1nncs1`: the IC50 in the assay on MDA-MB-435 was 55.6 µM; in assay [1] it was 7.8 µM; in the assay on A549 it was 2.4 µM; in the assay with HT-29 it was 12.1 µM; in assay [2] it was more than 100 µM; in assay [3] it was 67.2 µM. Moreover, in the assay with Chorioallantoic membrane, the inhibition result is “Active”.

On to `CCN(CC)CCNC(=O)c1c(C)[nH]c(/C=C2\C(=O)Nc3ccc(F)cc32)c1C` [SUNITINIB], for which the IC50 came to 9.3 µM in the assay with MDA-MB-435, 55.6 µM in assay [1], 9.1 µM with A549 and 1.7 µM in the assay on HT-29.

For `CC1CC(=O)NN=C1c1ccc(NC(=O)Nc2ccc3c(/C=N/c4nccs4)n[nH]c3c2)cc1` (stereo unspecified), the IC50 in the assay with MDA-MB-435 is 22.7 µM; in assay [1], 5.6 µM; in the assay with A549, 8.9 µM; in the assay with HT-29 it was 12.8 µM; in assay [2] it was 11.2 µM; in assay [3], 78 µM.

With `O=C(Nc1ccc2c(/C=N/c3ccccn3)n[nH]c2c1)Nc1nncs1`, the concentration for half-maximal inhibition (IC50) in the assay on MDA-MB-435 was 4.8 µM; in assay [1] it was more than 100 µM; in the assay with A549, 56.4 µM; in the assay on HT-29, 9.4 µM; in assay [2] it was more than 100 µM; in assay [3] it was more than 100 µM. Further, the inhibition entry with Chorioallantoic membrane is “Active”.

With `O=C(Nc1ccc2c(/C=N/c3ncccn3)n[nH]c2c1)Nc1nccs1`, the half-maximal inhibitory concentration (IC50) in the assay on MDA-MB-435 came to 55.2 µM; in assay [1], 6.8 µM; with A549 it was 19.6 µM; in the assay with HT-29, 78.6 µM; in assay [2], 15.4 µM; in assay [3], 12.8 µM. Also, in the assay on Chorioallantoic membrane (dose or concentration not given here), the inhibition was 51.6%.

Source of the values: ChEMBL document CHEMBL3785054, “Identification of inhibitors for vascular endothelial growth factor receptor by using dynamic combinatorial chemistry” (Bioorg Med Chem Lett, 2016).
